Data published in patent publication US6713504B2, “Antifungal molecule 2-(3,4-dimethyl-2,5-dihydro-1H-pyrrol-2-yl)-1-methylethyl pentanoate” (Council of Scientific & Industrial Research, priority 2002, dated 2004).
Converted amounts (≈) assume the structure as drawn.

What was measured:
A. flavus = test: Microbroth dilution assay; format: cell-based; parameters: key to Activity of the compound against Aspergillus sp. after 48 hrs.: +ve if medium appeared clear with out any growth of fungi; −ve if growth was there
Protocol: (§1) Pathogenic strains of fungi were obtained from the Mycology Department of Vallabhbhai Patel Chest Institute, Delhi. All the strains were grown on Sabouraud dextrose agar at 37° C. The conidia form these cultures were harvested and suspended in Sabouraud maltose broth. The number of conidia was counted using haemocytometer and their number in the suspension was adjusted to as per need of the experiment.
(§2) The antifungal susceptibility of the fungi to various fractions or the purified component was assayed by the microbroth dilution method (Forthergill A. W. and McGough A. W., 1995, Clin. Microbiol. Procedure Handbook. In Vitro susceptibility Testing of Yeast, 5.15.1-5.15.15). The fungal spores were harvested from 96-h cultures and their number adjusted to 1×10^6 per ml. The Sabouraud Dextrose medium was dissolved in glass double distilled water and autoclaved at 10 psi for 15 min. 90-μl medium was added into the wells of cell culture plates. The different concentrations of the extract, fractions or the purified compound were prepared in duplicate wells and then the wells were inoculated with 10 μl of spore suspension. The plates were incubated at 37° C. and examined macroscopically after 48 h for the growth of fungal mycelia. The activity was represented as −ve if growth was there and +ve if medium appeared clear with out any growth of fungi.
(§3) The antifungal susceptibility of the fungi to the purified compound was assayed by the microbroth dilution method. The different concentrations of the purified compound ranging from 21.87 to 350 μg/ml were prepared in duplicate wells by twofold dilution method. The test was done as described above.

A. fumigatus = test: Microbroth dilution assay; format: cell-based; parameters: key to Activity of the compound against Aspergillus sp. after 48 hrs.: +ve if medium appeared clear with out any growth of fungi; −ve if growth was there
Protocol: as §1, §2, §3

A. niger = test: Microbroth dilution assay; format: cell-based; parameters: key to Activity of the compound against Aspergillus sp. after 48 hrs.: +ve if medium appeared clear with out any growth of fungi; −ve if growth was there
Protocol: as §1, §2, §3

A. fumigatus infection = test: In vivo efficacy (survival) in mice model of aspergillosis; parameters: species or system Balb/C mice; details: 7 doses
Protocol: The mice model of aspergillosis described by Dixon et al (1989), was used to study the effects of compound on in vivo infection of A. fumigatus.
The animals were housed in the micro-barrier cages on sterile bedding and fed ad libitum water and food. The mice were divided into 6 groups and each group contained 8-10 animals. The mice were infected experimentally with A. fumigatus. Three days prior to infection with conidia, mice were injected subcutaneously with 3 doses (250.0 mg/kg/day) of cortisone acetate in 400.0 μl of PBS. On the infection day, each mouse received 2×10^7 conidia by nasal instillation of a single droplet of conidial suspension.
A. fumigatus (190/96) isolate was grown on Sabouraud dextrose agar plates at 37° C. for 4 days. The conidia were collected from the culture plates using PBS (pH 7.2) containing 0.05% Tween 80 (Sigma Chemicals) and the suspension was filtered through sterile glass wool. The conidia were pelleted by centrifugation at 2000 rpm and re-suspended in PBS, pH 7.2. The number of conidia was counted and adjusted to 1×10^8 conidia/ml. The viability of the conidia was determined by plating the dilutions of suspensions on Sabouraud dextrose agar.
The purified compound (metelatropinyl ester) isolated from the D. metel was administered orally in the concentration ranging from 0.0, 25.0 50.0 100.0 200.0 and 400.0 mg/kg body weight to the mice infected experimentally with A. fumigatus.
The dosing of the animals (cortisone treated and challenged) with compound in 6 different groups was initiated within 30 min after challenge with A. fumigatus conidia.
Group I: The mice were treated orally with 7 doses of 25.0 mg/kg/day of the compound.
Group II: The animals infected with A. fumigatus conidia were given 50.0 mg/kg/day of the compound for 7 days orally.
Group III: The animals in this group were given 7 oral doses of 100.0 mg/kg/day of the compound.
Group IV: In this group of animals, 7 oral doses of the compound (200.0 mg/kg/day) were given.
Group V: The animals of this group were treated with 7 doses of 400.0 mg/kg/day orally over a period of 7 days.
Group VI: The animals of this group acted as control and were treated orally with 7 doses of 400 μl PBS containing solvent.
The animals were housed in properly labeled cages and kept under close watch for weight loss and the mortality. The survival rate over a period of 10 days was calculated and the fungal burden in survivors determined (Clemons and Stevens, 1994).
The Balb/C mice of 6-8 weak of age of either sex, weighing 15-20 g, were housed in micro-barrier cages on sterile bedding and fed ad libitum water and food. The animals were divided into 6 groups and each group contained 8-10 mice.

Aspergillus species = test: Spore germination inhibition assay; format: cell-based; details: 10 hrs incubation
Protocol: as §1
The modified spore germination inhibition assay was performed as described earlier (Sureder P. and Janaiah C., 1987, Ind. J. Expt. Biol., 25, 233-234). The fungal species were grown on Sabouraud dextrose agar plates at 37° C. for 96 h. […] The conidia were counted and their number in the suspension was adjusted to 1×10^4 per ml. The standard drug Amphotericin B and test samples were initially dissolved in minimal quantity of dimethylsulfoxide (DMSO) and then diluted with Sabouraud dextrose medium. […] The number of germinated and non-germinated spores was counted. The percent spore germination inhibition (PSGI) was calculated using following formula [formula]
Antifungal Activity of Pure Compound by Spore Germination Inhibition Assay The spore germination inhibition assay was performed to evaluate the activity of the compound. […] The number of germinated and non-germinated spores was counted and the percent spore germination inhibition (PSGI) was calculated. […]

Compound: CCCCC(=O)OC(C)CC1NCC(C)=C1C (stereo not drawn) [PC-1, 2-(3,4-dimethyl-2,5-dihydro-1H-pyrrol-2-yl)-1-methylethyl pentanoate]
- Activity of the compound against Aspergillus sp. after 48 hrs. (A. flavus; 21.87 μg/ml): −
- Activity of the compound against Aspergillus sp. after 48 hrs. (A. flavus; 43.75 μg/ml): −
- MIC (A. flavus; Aspergillus flavus, no visual growth, 48 h): 87.5 mg/L (≈ 366 µM)
- Activity of the compound against Aspergillus sp. after 48 hrs. (A. fumigatus; 21.87 μg/ml): −
- Activity of the compound against Aspergillus sp. after 48 hrs. (A. fumigatus; 43.75 μg/ml): −
- MIC (A. fumigatus; Aspergillus fumigatus, no visual growth, 48 h): 87.5 mg/L (≈ 366 µM)
- Activity of the compound against Aspergillus sp. after 48 hrs. (A. niger; 21.87 μg/ml): −
- Activity of the compound against Aspergillus sp. after 48 hrs. (A. niger; 43.75 μg/ml): −
- MIC (A. niger; Aspergillus niger, no visual growth, 48 h): 87.5 mg/L (≈ 366 µM)
- survived up to 10th day (A. fumigatus infection; 25.0 mg/kg body weight oral, 1 out of 10): 10%
- survived up to 10th day (A. fumigatus infection; 50.0 mg/kg body weight oral, 1 out of 8): 12.5%
- survived up to 10th day (A. fumigatus infection; 100.0 mg/kg body weight oral, 3 out of 9): 33.3%
- survived up to 10th day (A. fumigatus infection; 200.0 mg/kg body weight oral, 4 out of 9): 44.4%
- survived up to 10th day (A. fumigatus infection; 400.0 mg/kg body weight oral, 8 out of 10): 80%
- MIC by percent spore germination inhibition (Aspergillus species): 87.5 mg/L (≈ 366 µM)
